{"source": "patent US20180296586A1", "about": "“USE OF NADPH FOR PREPARATION OF A DRUG FOR ANTIPLATELET AGGREGATION” (Chongqing Institute of Bench-to-Bed Bioengineering …, priority 2015, published 2018)", "key": {"[1]": {"system": "ADP-induced platelet aggregation", "experiment": "ADP-induced platelet aggregation of rats, in-vitro administration of NADPH", "assay_type": "cell-based", "conditions": "rat PRP, NADPH 30, 60 and 90 μM in vitro, ADP 20 μM, 4 min; P<0.05, P<0.01 vs ADP group", "procedure": "(§1) 20 rats are subjected to blood drawing from abdominal aorta, 3.8% sodium citrate is used for carrying out anticoagulation treatment according to a drawn blood volume/anticoagulant ratio of 9:1, centrifugation is carried out for 5 min at a rate of 1000 r/min, upper-layer platelet-rich plasma (PRP) is sucked out, remaining blood is subjected to centrifugation for 10 min at a rate of 3000 r/min to prepare platelet-poor plasma (PPP) until the number of platelets is 2*10<8>/mL, and platelet aggregation is detected by adopting a platelet aggregometer Chronolog-590.\nThe platelet aggregometer is turned on and preheated for 30 min, and light transmittance is adjusted to 100% with PPP as blank control. 0.25mL of NADPH samples of different concentrations (30 μM, 60 μM and 90 μM) are added into PRP, preheating is conducted for 5 min at the temperature of 37 DEG C., the preheated material is put into the aggregometer, then, a certain amount of ADP (20 μM) is added to induce platelet aggregation, graphic changes in 4 min are recorded, and conditions of ADP-induced platelet aggregation caused by NADPH are observed."}, "[2]": {"system": "thrombin-induced platelet aggregation", "experiment": "Thrombin-induced platelet aggregation of rats, in-vitro administration of NADPH", "assay_type": "cell-based", "conditions": "rat PRP, NADPH 30, 60 and 90 μM in vitro, thrombin 2U, 4 min; P<0.05, P<0.01 vs thrombin group", "procedure": "as §1\nThe platelet aggregometer is turned on and preheated for 30 min, and light transmittance is adjusted to 100 % with PPP as blank control. 0.25 mL of NADPH samples of different concentrations (30 μM, 60 μM and 90 μM) are added into PRP, preheating is conducted for 5 min at the temperature of 37 DEG C., the preheated material is put into the aggregometer, then, a certain amount of thrombin (2U) is added to induce platelet aggregation, graphic changes in 4 min are recorded, and conditions of thrombin-induced platelet aggregation caused by NADPH are observed."}, "[3]": {"system": "ADP-induced platelet aggregation", "experiment": "ADP-induced platelet aggregation after preventive administration of NADPH in rats", "assay_type": "in vivo, rat", "conditions": "NADPH 7.5 mg/kg caudal vein 30 min before blood drawing, ADP 20 μM, P<0.01", "procedure": "as §1, with “Normal SD male rats are randomly divided into 2 groups, i.e., a physiological saline group (saline group) and an NADPH (7.5 mg/kg) dosage group in a manner that each group comprises 10 rats. NADPH is injected into the rats through caudal veins 30 min before blood drawing. The” for “20”\nThe platelet aggregometer is turned on and preheated for 30 min, and light transmittance is adjusted to 100% with PPP as blank control. APRP sample of the physiological saline group (saline group) and a PRP sample of the NADPH (7.5 mg/kg) dosage group are preheated for 5 min at the temperature of 37 DEG C., the preheated PRP samples are put into the aggregometer, then, a certain amount of ADP (20 μM) is added to induce platelet aggregation, graphic changes in 4 min are recorded, and conditions of ADP-induced platelet aggregation caused by NADPH are observed."}, "[4]": {"system": "thrombin-induced platelet aggregation", "experiment": "Thrombin-induced platelet aggregation after preventive administration of NADPH in rats", "assay_type": "in vivo, rat", "conditions": "NADPH 7.5 mg/kg caudal vein 30 min before blood drawing, thrombin 2U, P<0.01", "procedure": "as §1, with “Normal SD male rats are randomly divided into 2 groups, i.e., a physiological saline group (saline group) and an NADPH (7.5 mg/kg) dosage group in a manner that each group comprises 10 rats. NADPH is injected into the rats through caudal veins 30 min before blood drawing. The” for “20”\nThe platelet aggregometer is turned on and preheated for 30 min, and light transmittance is adjusted to 100% with PPP as blank control. […]"}}, "data": [{"smiles": "NC(=O)C1=CN([C@@H]2O[C@H](COP(=O)(O)OP(=O)(O)OC[C@H]3O[C@@H](n4cnc5c(N)ncnc54)[C@H](OP(=O)(O)O)[C@@H]3O)[C@@H](O)[C@H]2O)C=CC1", "note": "[NADPH, Reduced triphosphopyridine nucleotide]", "values": [{"measurement": "inhibition of ADP-induced platelet aggregation", "setting": "[1]", "result": "inhibits ADP-induced platelet aggregation of rats in a dose-dependent mode"}, {"measurement": "inhibition of thrombin-induced platelet aggregation", "setting": "[2]", "result": "inhibits thrombin-induced platelet aggregation of the rats in a dose-dependent mode"}, {"measurement": "inhibition of ADP-induced platelet aggregation", "setting": "[3]", "result": "remarkably inhibit ADP-induced platelet aggregation"}, {"measurement": "inhibition of thrombin-induced platelet aggregation", "setting": "[4]", "result": "remarkably inhibit thrombin-induced platelet aggregation"}]}]}
